According to US20240315237A1, “METHODS FOR SINGLE CELL ANALYSIS OF GLUCOSE INTERNALIZATION” (ABBOTT DIABETES CARE INC., priority 2023, published 2024):
Several values for one entry are separate records, joined by “and”; a condition that tells them apart may be missing. Equal values may be shown once. Entries after “also recorded” stand apart in the source; their conditions may differ.

Assays:
Assay type in all cases: cell-based
GLUT1 [1] = target: T1, GLUT1 (Homo sapiens, UniProt P11166); test: glucose competition study with unlabeled D-glucose (flow cytometry); conditions: 20 μM tracer; for mean intensity maintained, % of the mean intensity of the control sample: 100 mM unlabeled D-glucose (5000× tracer), 60 min, 37° C., human RBCs
T1 construct: Adult human RBCs exclusively express the glucose transporter 1 (GLUT1) encoded by the SLC2A1 gene; endogenous in cells; host or cells: human erythrocytes (RBCs) isolated from blood
T1 sequence (P11166 1-492): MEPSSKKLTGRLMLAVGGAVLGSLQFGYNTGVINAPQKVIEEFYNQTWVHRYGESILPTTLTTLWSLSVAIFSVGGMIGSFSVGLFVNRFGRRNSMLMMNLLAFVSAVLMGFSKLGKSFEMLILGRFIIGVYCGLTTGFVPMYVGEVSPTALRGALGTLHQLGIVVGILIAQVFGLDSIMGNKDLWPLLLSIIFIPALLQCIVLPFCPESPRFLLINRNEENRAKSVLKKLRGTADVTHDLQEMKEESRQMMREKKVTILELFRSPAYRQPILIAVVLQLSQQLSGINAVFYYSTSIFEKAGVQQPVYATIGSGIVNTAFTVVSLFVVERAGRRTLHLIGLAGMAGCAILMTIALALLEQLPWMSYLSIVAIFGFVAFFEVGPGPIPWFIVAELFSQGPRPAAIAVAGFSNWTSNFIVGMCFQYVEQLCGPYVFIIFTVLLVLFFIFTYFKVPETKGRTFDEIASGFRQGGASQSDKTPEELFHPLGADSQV
Protocol: (§1) To test the tracer specificity, a competition experiment was first performed on the flow cytometer under identical settings as were used in the membrane integrity experiments above. Aliquots of solutions of RBCs containing KCl solution and 20 μM of a given glucose tracer were incubated for 60 minutes at 37° C. shaker at 400 RPM containing a selected concentration of unlabeled D-glucose (i.e., 0.00, 0.01, 0.50, 1.00, 5.00, 25.00, 50.00 or 100.00 mM). After incubation, cells were washed one time in 125 KCl solution containing the selected concentration of D-glucose and promptly measured on the flow cytometer using the conditions described above. Next, GLUT1-specific transport was further tested by preparing washed RBC solutions as described above and then incubating the RBC solutions with one of the GLUT1 inhibitors on a 37° C. shaker at 400 RPM for one hour of incubation. […] Samples were then spun down, and supernatant was removed and fresh inhibitor/KCl solution was added and inverted. Glucose tracers were then added at working concentrations of 20 μM and incubated for 30 minutes on a 37° C. shaker at 400 RPM. After 30 minutes, cells were quickly spun down again using the protocol described in herein and supernatant was removed and replaced with fresh inhibitor/KCl solution before immediately being placed on the flow cytometer. Each sample was run on the flow cytometer using identical settings described above.

GLUT1 [2] = target: T1, GLUT1; test: small molecule GLUT1 inhibition study of tracer uptake (flow cytometry)
Protocol: as §1, with “Each sample was run on the flow cytometer using identical settings described above.” left out

human erythrocytes = test: single cell 2-NBDG uptake in anchored RBCs (microfluidic perfusion, confocal microscopy)
Protocol: Sample preparation. Human whole blood from an individual donor was drawn into sodium heparin (NaHep) and shipped cold. Samples were received directly from BioIVT LLC and placed into 4° C. refrigeration until prepared for experimentation. Samples removed from refrigeration for experimentation purposes were first inverted for three minutes and then 200 μL were drawn from the collection tubes and placed into a fresh 1.5 mL centrifuge tube containing 1 mL of 125 mM KCl solution. Samples were gently inverted 5-10× and then placed in a 4° C. centrifuge and spun using a modified RBC isolation protocol aimed at reducing clotting of whole blood and deformation of RBCs (Hanson et al., American Journal of Physiology Heart and Circulatory Physiology, 2008. 295(2): p. H786-H793). Centrifugation-based separation of RBCs was performed at 2000 RPM (490×g) for 5 minutes. After centrifugation, supernatant was removed along with buffy coat (white blood cells, etc.) using a pipette and a fresh 1 mL of KCl solution was then added. This process was repeated 3× to isolate RBCs and diminish intracellular glucose.
Samples were then vortexed gently and placed on a 37° C. shaker at 400 RPM for one hour for incubation. Due to the high expression of glycophorin A+B in erythrocytes, it was a simple membrane target for antibody anchoring of cells to the microfluidic imaging surface using the biotin binding Neutravidin™ system.
Microfluidic Perfusion. An ONIX microfluidic perfusion system from CellAsic (Millipore Sigma) was used for flow-based experiments. The system comprises a perfusion pump system, which connects to a PC for multidimensional control of flow rates (converted from applied kPa, i.e., 27.6 kPA=20 μL/hr) and duration. The plates used for experiments herein are model Y04C. This plate system has a #1.5 glass bottom for imaging and contains four separate channels which have an observation region where fluid switching can occur homogenously. Plates were removed from vacuum packaging the day of experimentation and storage PBS was removed using a vacuum system. Each well was then filled with 400 μL of KCl solution and placed on the perfusion system. KCl solution was flowed through each channel and well (except for the waste well #7) at 20 μL/hr for 20 minutes to flush out any storage PBS. Next, one of the wells (#1 for each channel) was filled with 100 μL 0.1 mg/mL Pierce™ biotinylated-bovine serum albumin (B-BSA, Cat #29130, Thermo Scientific) in 125 mM KCl solution and this was then flowed through for 15 minutes total, then allowed to incubate for 15 minutes at room temperature. After the B-BSA was deposited on the glass surface of the channels, a 0.1 mg/mL solution of Neutravidin (Cat #31000, Thermo Scientific) in KCl solution was flowed for 15 minutes at room temperature to build a surface anchoring system for red blood cells.
For uptake measurements, cells incubated with biotinylated-α-glycophorin A+B antibodies were diluted 1:1 in KCl solution within well #8 and perfused using 20 μL/hr in combination with well #5 containing KCl solution only at 20 μL/hr for 10 seconds. Flowed cells were then allowed to incubate with the cell anchoring system described above for three minutes. […] Immediately after this time point, well #2 was stopped, and KCl solution only from well #5 was perfused at 20 μL/hr to wash away tracer (“washout”).
For uptake measurements, the 488 nm laser was configured for excitation to a power level of 0.07% of total laser voltage (i.e., 3.5 μW before the objective) with a pixel dwell time of 0.24 μs. For detection, the detector bandwidth was set to admit wavelengths 520 nm to 560 nm with a master gain of 500 V and digital gain set to 1×. The field of view was 1944 pixels×1944 pixels (or 192.8 μm×192.8 μm) which led to a total frame time of 989.11 ms for a single acquisition. With these settings and using the 40× magnification, the pixel size was ˜0.1 μm×˜0.1 μm.

[3] = 5 mM 2-NBDG, all cells, height corrected, FIG. 16B
[4] = normalized to the all donor mean, N=45, FIG. 18

Compound | mean intensity maintained, % of the mean intensity of the control sample (GLUT1 [1]) [%] | competition with unlabeled D-glucose among three tracers (GLUT1 [1]; 0.00-100.00 mM D-glucose, FIG. 9C) | inhibition of tracer uptake by GLUT1 inhibitors, compared with other tracers (GLUT1 [2]; Phloretin, Cytochalasin B, WZB117, STF-31, BAY-876, 20 μM tracer, FIG. 1B) | specificity for the GLUT1 transporter (GLUT1 [2]; human RBCs, inhibitor panel and glucose competition experiments) | time to saturation point of intracellular 2-NBDG intensity (human erythrocytes; 5 mM 2-NBDG, 20 μL/hr, FIG. 11B) | mean intracellular glucose fraction, typical patient with higher fraction (human erythrocytes; 5 mM 2-NBDG, 1802 cells, cell heights ≥2.1 μm, mean±1 SD, FIG. 14B) | mean intracellular glucose fraction, typical patient with lower fraction (human erythrocytes; 5 mM 2-NBDG, 2343 cells, cell heights ≥2.1 μm, mean±1 SD, FIG. 14A) | mean intracellular percentage for this patient blood sample (human erythrocytes; 5 mM 2-NBDG, FIG. 11C) [%] | intracellular glucose percentage, Black patients (human erythrocytes; 5 mM 2-NBDG, FIG. 16A, n=20, mean±1 SD) | intracellular glucose percentage, Caucasian/Hispanic patients (human erythrocytes; 5 mM 2-NBDG, FIG. 16A, n=25, mean±1 SD) | mean (+/−SD) uptake normalized to overall mean, Black ancestry (human erythrocytes; 5 mM 2-NBDG, FIG. 17) [%+/−39%] | mean (+/−SD) uptake normalized to overall mean, White ancestry (human erythrocytes; 5 mM 2-NBDG, FIG. 17) [%+/−36%] | corrected intracellular glucose percentage (HCIG), Black patients (human erythrocytes; [3]) | corrected intracellular glucose percentage (HCIG), Caucasian/Hispanic patients (human erythrocytes; [3]) | stability of saturating intracellular level (plateau) (human erythrocytes; extended duration measurements, FIGS. 13A-13B) | mean normalized intracellular glucose, Black sub-group (human erythrocytes; [4]) | mean normalized intracellular glucose, Hispanic/Caucasian sub-group (human erythrocytes; [4])
6-deoxy-2-[(7-nitro-2,1,3-benzoxadiazol-4-yl)amino]-D-glucose [6-NBDG] | 13.8 |  |  |  |  |  |  |  |  |  |  |  |  |  |  |  | 
O=C[C@H](Nc1ccc([N+](=O)[O-])c2nonc12)[C@@H](O)[C@H](O)[C@H](O)CO [2-NBDG, 2-deoxy-2-[(7-nitro-2,1,3-benzoxadiazol-4-yl)amino]-D-glucose] | 1.4 | highest competition | most inhibition; also recorded: consistently the most inhibited | highest specificity; also recorded: GLUT1 specific | within several seconds | 6.7% and 6.7%±2.3% | 4.6% and 4.6%±1.6% | 4.9 | 0.057±0.018 | 0.044±0.018 | 118 | 86 | 0.060±0.020 | 0.044±0.018 | stable for several hours | 1.18 | 0.86
D-Glucose-Silicon rhodamine [D-glucose-SIR] | 41.9 |  |  |  |  |  |  |  |  |  |  |  |  |  |  |  | 
